ChEMBL document CHEMBL1140652 (Bioorg Med Chem Lett, 2007)
≈ marks a conversion by molar mass, not a printed value.

Legend:
Moraxella catarrhalis = experiment: microbe, parasite or virus in culture
Description: Antibacterial activity against Moraxella catarrhalis BC-3531

Enterococcus faecalis = experiment: microbe, parasite or virus in culture
Description: Antibacterial activity against Enterococcus faecalis MGH2 EF1-1

Streptococcus pneumoniae = experiment: microbe, parasite or virus in culture; details: SV1
Description: Antibacterial activity against Streptococcus pneumoniae SV1 SP3

Staphylococcus aureus = experiment: microbe, parasite or virus in culture; details: SA1
Description: Antibacterial activity against Staphylococcus aureus UC76 SA1

physchem = details: potassium phosphate buffer, pH 6.5
Description: Aqueous solubility in potassium phosphate buffer at pH 6.5 by laser nephrometry

Haemophilus influenzae = experiment: microbe, parasite or virus in culture
Description: Antibacterial activity against Haemophilus influenzae HI3542

Escherichia coli = experiment: microbe, parasite or virus in culture
Description: Inhibition of transcription and translation activity in Escherichia coli by luciferase reporter assay

Row | SMILES | MIC (Moraxella catarrhalis) [µg/mL] | MIC (Enterococcus faecalis) [µg/mL] | MIC (Streptococcus pneumoniae) [µg/mL] | MIC (Staphylococcus aureus) [µg/mL] | solubility kinetic (physchem) [µg/mL] | MIC (Haemophilus influenzae) [µg/mL] | IC50 (Escherichia coli) [nM]
1 | CC(=O)NC[C@H]1CN(c2ccc3c(c2)CCCc2cn[nH]c2-3)C(=O)O1 | 2 (≈ 5.88 µM) | 0.25 (≈ 0.734 µM) | 0.25 (≈ 0.734 µM) | 0.5 (≈ 1.47 µM) | 14 (≈ 41.1 µM) | 2 (≈ 5.88 µM) | 450
2 | COc1ccc(CNc2n[nH]c3c2CCCc2cc(N4C[C@H](CNC(C)=O)OC4=O)ccc2-3)cc1 | 4 (≈ 8.41 µM) | 1 (≈ 2.1 µM) | 0.5 (≈ 1.05 µM) | 1 (≈ 2.1 µM) | – | 8 (≈ 16.8 µM) | 2200
3 | COCCNc1n[nH]c2c1CCCc1cc(N3C[C@H](CNC(C)=O)OC3=O)ccc1-2 | 8 (≈ 19.3 µM) | 2 (≈ 4.84 µM) | 1 (≈ 2.42 µM) | 2 (≈ 4.84 µM) | – | 1 (≈ 2.42 µM) | 2600
4 | CC(=O)NC[C@H]1CN(c2ccc3c(c2)CCCc2c(NCCN)n[nH]c2-3)C(=O)O1 | 4 (≈ 10 µM) | 16 (≈ 40.2 µM) | 4 (≈ 10 µM) | 32 (≈ 80.3 µM) | > 70 | 16 (≈ 40.2 µM) | 800
5 | CC(=O)NC[C@H]1CN(c2ccc3c(c2)CCCc2c(N)n[nH]c2-3)C(=O)O1 | 2 (≈ 5.63 µM) | 2 (≈ 5.63 µM) | 0.5 (≈ 1.41 µM) | 4 (≈ 11.3 µM) | – | 4 (≈ 11.3 µM) | 1200
6 | CNc1n[nH]c2c1CCCc1cc(N3C[C@H](CNC(C)=O)OC3=O)ccc1-2 | 2 (≈ 5.41 µM) | 1 (≈ 2.71 µM) | 0.5 (≈ 1.35 µM) | 2 (≈ 5.41 µM) | > 70 | 4 (≈ 10.8 µM) | 1000
7 | CCN(CC)CCCNc1n[nH]c2c1CCCc1cc(N3C[C@H](CNC(C)=O)OC3=O)ccc1-2 | 32 (≈ 68.3 µM) | 32 (≈ 68.3 µM) | 4 (≈ 8.54 µM) | 64 (≈ 137 µM) | – | 32 (≈ 68.3 µM) | 13000
8 | CCNc1n[nH]c2c1CCCc1cc(N3C[C@H](CNC(C)=O)OC3=O)ccc1-2 | 4 (≈ 10.4 µM) | 1 (≈ 2.61 µM) | 0.25 (≈ 0.652 µM) | 1 (≈ 2.61 µM) | – | 4 (≈ 10.4 µM) | 1300
9 | CC(=O)NC[C@H]1CN(c2ccc3c(c2)CCCc2c(NC(C)C)n[nH]c2-3)C(=O)O1 | 8 (≈ 20.1 µM) | 2 (≈ 5.03 µM) | 0.5 (≈ 1.26 µM) | 4 (≈ 10.1 µM) | – | 8 (≈ 20.1 µM) | 2200
10 | CCCNc1n[nH]c2c1CCCc1cc(N3C[C@H](CNC(C)=O)OC3=O)ccc1-2 | 8 (≈ 20.1 µM) | 1 (≈ 2.52 µM) | 0.25 (≈ 0.629 µM) | 2 (≈ 5.03 µM) | – | 4 (≈ 10.1 µM) | 2500
11 | CC(=O)NC[C@H]1CN(c2ccc3c(c2)CCCc2c(Nc4ccccc4)n[nH]c2-3)C(=O)O1 | 2 (≈ 4.64 µM) | 0.5 (≈ 1.16 µM) | 0.5 (≈ 1.16 µM) | 1 (≈ 2.32 µM) | – | 4 (≈ 9.27 µM) | –
12 | CC(=O)NC[C@H]1CN(c2ccc3c(c2)CCCc2c(NCCN4CCOCC4)n[nH]c2-3)C(=O)O1 | 16 (≈ 34.1 µM) | 8 (≈ 17.1 µM) | 2 (≈ 4.27 µM) | 16 (≈ 34.1 µM) | – | 8 (≈ 17.1 µM) | 1900
13 | CC(=O)NC[C@H]1CN(c2ccc3c(c2)CCCc2c(NCCc4ccccn4)n[nH]c2-3)C(=O)O1 | 8 (≈ 17.4 µM) | 1 (≈ 2.17 µM) | 0.5 (≈ 1.09 µM) | 8 (≈ 17.4 µM) | – | 8 (≈ 17.4 µM) | 1700
14 | CC(=O)NC[C@H]1CN(c2ccc3c(c2)CCCc2c(NCCc4ccc(O)cc4)n[nH]c2-3)C(=O)O1 | 2 (≈ 4.21 µM) | 1 (≈ 2.1 µM) | 0.5 (≈ 1.05 µM) | 2 (≈ 4.21 µM) | – | 4 (≈ 8.41 µM) | 2100
15 | CC(=O)NC[C@H]1CN(c2ccc3c(c2)CCCc2c(NCCCO)n[nH]c2-3)C(=O)O1 | 32 (≈ 77.4 µM) | 8 (≈ 19.3 µM) | 4 (≈ 9.67 µM) | 8 (≈ 19.3 µM) | – | 16 (≈ 38.7 µM) | 1800
16 | COCCCNc1n[nH]c2c1CCCc1cc(N3C[C@H](CNC(C)=O)OC3=O)ccc1-2 | 16 (≈ 37.4 µM) | 4 (≈ 9.36 µM) | 1 (≈ 2.34 µM) | 4 (≈ 9.36 µM) | – | 16 (≈ 37.4 µM) | 2900
17 | CC(=O)NC[C@H]1CN(c2ccc3c(c2)CCCc2c(NCCCN)n[nH]c2-3)C(=O)O1 | 32 (≈ 77.6 µM) | 8 (≈ 19.4 µM) | 4 (≈ 9.7 µM) | 32 (≈ 77.6 µM) | > 70 | > 64 | 450
18 | CC(=O)NC[C@H]1CN(c2ccc3c(c2)CCCc2c(NC(=O)C(O)CO)n[nH]c2-3)C(=O)O1 (some centres undefined) | 32 (≈ 72.2 µM) | 16 (≈ 36.1 µM) | 2 (≈ 4.51 µM) | 16 (≈ 36.1 µM) | 46 (≈ 104 µM) | 32 (≈ 72.2 µM) | 780
19 | CC(=O)NC[C@H]1CN(c2ccc3c(c2)CCCc2c(NCc4ccccc4)n[nH]c2-3)C(=O)O1 | 4 (≈ 8.98 µM) | 1 (≈ 2.24 µM) | 1 (≈ 2.24 µM) | 2 (≈ 4.49 µM) | – | 8 (≈ 18 µM) | 2000
20 | CC(=O)NC[C@H]1CN(c2ccc3c(c2)CCCc2c(NC(=O)CO)n[nH]c2-3)C(=O)O1 | 16 (≈ 38.7 µM) | 4 (≈ 9.68 µM) | 4 (≈ 9.68 µM) | 16 (≈ 38.7 µM) | – | 16 (≈ 38.7 µM) | 1300
